One experiment has as its system 4T1 breast cancer cells. The settings on record: in vitro; Safholm et al. 2008; cited from earlier work.
The subject of experiment [1] is growth factor independent (GFI) hGBM TPCs. Kind of experiment: Matrigel invasion assay, GFI TPCs. The format is cell-based, human. An excerpt:
Invasion Assays—Matrigel Invasion Assays
An Invasion Assay is an in vitro system to study invasion capability of malignant and normal cells. Specific applications include assessment of the metastatic potential of tumor cells, inhibition of metastasis by extracellular matrix components or antineoplastic drugs, altered expression of cell surface proteins, or matrix metalloproteinases in metastatic cells; and invasion of normal cells such as embryonic stem cells, cytotrophoblasts, endothelial cells, and fibroblasts.
According to one embodiment, the following Matrigel invasion assay protocol is one example of an invasion assay. A coating buffer is prepared and a Matrigel Matrix aliquot is thawed at 4° C. Then, a coating solution is prepared by mixing the Matrigel Matrix with the coating buffer. A number of permeable supports are transferred into the wells of a 24-well plate and 100 ul of the diluted Matrigel is put into each well of the 24-well plate. The plate is then incubated with the coated permeable support at 37° C. for 2 h for gelling. Cells are cultured and prepared for the invasion assay, for example, growth factor dependent hGBM tumor-propagating cells with stem-like characteristic (GFD TPCs) are pretreated with saturating concentrations of recombinant Wnt5a protein (GFD+R5); lentiviral-mediated over-expression GFD cells (GFD+LV5); growth factor independent (GFI) TPCs are treated with saturating concentrations of a Wnt5a-blocking antibody (AbW5) or of a recombinant Wnt3a protein (R3) or of a recombinant secreted frizzled-related protein 1 (SFRP1), or GFI TPCs exposed to Wnt5a-derived peptides termed Box5 (SEQ ID NO: 1), Peptide A (SEQ ID NO: 2) and Peptide B (SEQ ID NO: 3) Cell suspensions are prepared in culture medium containing 5×10^4 cells/mL for the 24 well invasion chambers. An aliquot of 0.5 mL of cell suspension (2.5×10^4 cells) is then added to each 24 well invasion chamber. A chemoattractant is added to the wells of the plate (such as fibronectin as an adhesive substrate). The Cell invasion chambers are then incubated overnight in a humidified tissue culture incubator at 37° C., 5% CO2 atmosphere. The noninvaded cells on the top of the Matrigel coated permeable support are scraped off with a cotton swab. Then the permeable supports from 24-well plates are removed and stained with a cell staining solution and the invaded cells are counted under a light microscope.

For a further experiment, the system named is GFI or GFD TPCs. The experiment can be described thus: Growth kinetics (expansion) of TPCs. The format is cell-based, human. The note with it: FIG. 16g.
The test system of experiment [2] is hGBM TPC-derived tumors (GFI / GFD TPCs). Kind of experiment: Orthotopic implantation of luciferase-tagged TPCs into SCID mice. The format is in vivo, mouse (SCID). The settings on record: for tumor growth (luc-TPC signal, time course): GFI cells treated in culture prior to transplantation (pre-treatment), SCID mice, FIG. 18c; for tumor growth (luc-TPC signals, time course): co-injection (co-treatment) with either GFD or GFI TPCs, FIGS. 18e and 18f; for tumor spread through the brain parenchyma (luciferase immunolabeling): luc-GFI pre-treated vs untreated GFI TPCs, FIG. 18d. The protocol: Evaluation of Tumorigenic Ability and Invasiveness In Vivo by Orthotopic Implantation
Tumorigenicity was determined by injecting tumor cells into immunodeprived adult severe combined immunodeficiency (SCID) mice. (Galli et al., Cancer Res. 2004, 65:7011-7021). Tumor cells, for example, GFI TPCs, GFD TPCs, GFI TPCs pretreated with Box5 (SEQ ID NO: 1), GFI TPCs pretreated with PeptideA (SEQ ID NO: 2) were injected into SCID mice orthotopically to evaluate the tumorigenic ability and invasiveness in vivo. Also, GFD or GFI TPCs and Wnt5a-blocking protein (AbWt), alone or in combination with BMP4 (B4), Box5 (SEQ ID NO: 1) and PeptideA (SEQ ID NO: 2) were co-injected into the SCID mice.
Mice were sacrificed at different times. Serial histological reconstruction of mouse brain sections were immunolabeled for luciferase for evaluation.
Results from in vivo experiments were all subjected to statistical analysis. Survival curves were estimated using the Kaplan-Meier method.

A further experiment relates to melanoma cells. The settings on record: Jenei et al. 2009; cited from earlier work.
The subject of experiment [3] is growth factor dependent hGBM TPCs (GFD TPCs). The experiment can be described thus: Matrigel invasion assay, GFD TPCs. The note with it: GFD cells treated with saturating concentrations (GFD+R5); FIG. 16a. The format is cell-based, human. The method, then: According to one embodiment, the following Matrigel invasion assay protocol is one example of an invasion assay. A coating buffer is prepared and a Matrigel Matrix aliquot is thawed at 4° C. Then, a coating solution is prepared by mixing the Matrigel Matrix with the coating buffer. A number of permeable supports are transferred into the wells of a 24-well plate and 100 ul of the diluted Matrigel is put into each well of the 24-well plate. The plate is then incubated with the coated permeable support at 37° C. for 2 h for gelling. […] Then the permeable supports from 24-well plates are removed and stained with a cell staining solution and the invaded cells are counted under a light microscope. […]

Setting [4] is: GFI TPCs exposed to Wnt5a-derived peptides, FIGS. 16c and 16d.
Where [5] appears, read: saturating concentrations, FIG. 16b.

These results are taken from patent US11357840B2, “Methods and compositions for reducing growth, migration and invasiveness of brain cancer stem cells and improving survival of patients with brain tumors” (HYPERSTEM SA, priority 2014, dated 2022).

No end group written: not given here. *: point of attachment. Boc = CC(C)(C)OC(=O)*; For = O=C*

Turning to For-MDGCEL [Foxy-5, reference compound], in the experiment with 4T1 breast cancer cells, the “apoptosis or proliferation of 4T1 breast cancer cells” value is on record as “without affecting”; the “migration and invasion of 4T1 breast cancer cells” value was “impaired migration and invasion”.
Regarding “LECGDM [Peptide A, hexapeptide LECGDM, peptide derivative of Box5]”, in experiment [1] (setting [4]), the “invasiveness of GFI TPCs” value is reported as “decreased the invasiveness of GFI TPCs in a dose-dependent fashion”. In the experiment with GFI or GFD TPCs, the “ability of GFI or GFD TPCs to expand (slope of the growth curves)” value (“ability … (slope of the growth curves)” for short) is “negligible effects”. Moreover, in experiment [2], the “tumor growth (luc-TPC signal, time course)” value was “tumor growth is decreased”; the “tumor growth (luc-TPC signals, time course)” value is listed as “inhibited”; the “tumor spread through the brain parenchyma (luciferase immunolabeling)” value is on record as “spread through the brain parenchyma less”.
As to “Leu-Glu-Gly-Asp-Met (LEGDM) [Peptide B, pentapeptide LEGDM, peptide derivative of Box5]”, in experiment [1] (setting [4]), the “invasiveness of GFI TPCs” value is on record as “decreased the invasiveness of GFI TPCs in a dose-dependent fashion”.
Take “t-butoxycarbonyl-Met-Asp-Gly-Cys-Glu-Leu (Boc-MDGCEL) [Box5, Wnt5a-derived hexapeptide MDGCEL, antagonist of Wnt5a, modified from Foxy-5, reference compound]”: the “invasiveness of GFI TPCs” value in experiment [1] (setting [4]) is “decreased the invasiveness of GFI TPCs in a dose-dependent fashion”. For the same molecule, the “ability … (slope of the growth curves)” value with GFI or GFD TPCs is recorded as “negligible effects”. In experiment [2], the “tumor growth (luc-TPC signal, time course)” value is reported as “tumor growth is decreased”; the “tumor growth (luc-TPC signals, time course)” value is reported as “inhibited”; the “tumor spread through the brain parenchyma (luciferase immunolabeling)” value is “spread through the brain parenchyma less”. Also, the “antagonism of Wnt5a-mediated migration and invasion of melanoma cells” value in the experiment with melanoma cells is listed as “potent, selective antagonist”.

B1: SFRP1: recombinant secreted frizzled-related protein 1, an endogenous Wnt antagonist (protein, UniProt Q8N474 32-314, looked up)
Secreted frizzled-related …: SEYDYVSFQSDIGPYQSGRFYTKPPQCVDIPADLRLCHNVGYKKMVLPNLLEHETMAEVKQQASSWVPLLNKNCHAGTQVFLCSLFAPVCLDRPIYPCRWLCEAVRDSCEPVMQFFGFYWPEMLKCDKFPEGDVCIAMTPPNATEASKPQGTTVCPPCDNELKSEAIIEHLCASEFALRMKIKEVKKENGDKKIVPKKKKPLKLGPIKKKDLKKLVLYLKNGADCPCHQLDNLSHHFLIMGRKVKSQYLLTAIHKWDKKNKEFKNFMKKMKNHECPTFQSVFK
Consider B1, for which the “invasiveness of GFI TPCs” value in experiment [1] (setting [5]) is given as “decreased the invasiveness”.

B2: recombinant Wnt3a protein: recombinant Wnt3a protein (R&D Systems) (protein, UniProt P56704 19-352, looked up)
Protein Wnt-3a: SYPIWWSLAVGPQYSSLGSQPILCASIPGLVPKQLRFCRNYVEIMPSVAEGIKIGIQECQHQFRGRRWNCTTVHDSLAIFGPVLDKATRESAFVHAIASAGVAFAVTRSCAEGTAAICGCSSRHQGSPGKGWKWGGCSEDIEFGGMVSREFADARENRPDARSAMNRHNNEAGRQAIASHMHLKCKCHGLSGSCEVKTCWWSQPDFRAIGDFLKDKYDSASEMVVEKHRESRGWVETLRPRYTYFKVPTERDLVYYEASPNFCEPNPETGSFGTRDRTCNVSSHGIDGCDLLCCGRGHNARAERRREKCRCVFHWCCYVSCQECTRVYDVHTCK
B2: the “invasiveness of GFI TPCs” value in experiment [1] (setting [5]) is listed as “decreased the invasiveness”.

B3: recombinant Wnt5a protein: recombinant Wnt5a protein (protein)
chain: IIGAQPLCSQLAGLSQGQKKLCHLYQDHMQYIGEGAKTGIKECQYQFRHRRWNCSTVDNTSVFGRVMQIGSRETAFTYAVSAAGVVNAMSRACREGELSTCGCSRAARPKDLPRDWLWGGCGDNIDYGYRFAKEFVDARERERIHAKGSYESARILMNLHNNEAGRRTVYNLADVACKCHGVSGSCSLKTCWLQLADFRKVGDALKEKYDSAAAMRLNSRGKLVQVNSRFNSPTTQDLVYIDPSPDYCVRNESTGSLGTQGRLCNKTSEGMDGCELMCCGRGYDQFKTVQTERCHCKFHWCCYVKCKKCTEIVDQFVCK
Consider B3, for which the “cell migration of GFD cells” value in experiment [3] is “increase in cell migration”. Besides, in the experiment on 4T1 breast cancer cells, the “apoptosis or proliferation of 4T1 breast cancer cells” value is on record as “without affecting”; the “migration and invasion of 4T1 breast cancer cells” value was “impaired migration and invasion”.

B4: BMP4: bone morphogenetic protein 4, positive control (protein, UniProt P12644 293-408, looked up)
Bone morphogenetic protein 4: SPKHHSQRARKKNKNCRRHSLYVDFSDVGWNDWIVAPPGYQAFYCHGDCPFPLADHLNSTNHAIVQTLVNSVNSSIPKACCVPTELSAISMLYLDEYDKVVLKNYQEMVVEGCGCR
On to B4, for which the “ability … (slope of the growth curves)” value in the experiment with GFI or GFD TPCs is listed as “significantly triggered negative deviations from the growth kinetics”.
